Reference: ChEMBL document CHEMBL4840311, “Discovery of novel nitrogenous heterocyclic-containing quinoxaline-1,4-di-N-oxides as potent activator of autophagy in M.tb-infected macrophages” (Eur J Med Chem, 2021)
Values after ≈ are worked out from the molar mass of the structure shown. Active and inactive are the calls of the source. The calls are words filed in the database; no cut-off is given here.

How the values were obtained:
[1] = test system: Mycobacterium tuberculosis; experiment: Antimycobacterial activity against Mycobacterium tuberculosis H37Rv ATCC 27294 assessed as inhibition of bacterial growth measured after 5 days by microplate alamar blue assay; type: functional; conditions: H37Rv ATCC 27294, 120 h, time 5 day
Vero = experiment: Cytotoxicity against African green monkey Vero cells assessed as reduction in cell viability measured after 72 hrs by MTT assay; type: cell-based; conditions: Chlorocebus sabaeus
[2] = Selectivity index, ratio of IC50 for African green monkey Vero cells measured after 72 hrs by MTT assay to MIC for antimycobacterial activity against Mycobacterium tuberculosis H37Rv ATCC 27294 assessed as inhibition of bacterial growth measured after 5 days by microplate alamar blue assay; type: toxicity; conditions: read-out: Selectivity Index
J774.A1 [3] = experiment: Cytotoxicity against mouse J774.A1 cells assessed as reduction in cell viability measured after 72 hrs by MTT assay; type: cell-based; conditions: J774.A1, 72 h
[4] = test system: Mycobacterium tuberculosis; experiment: Antimycobacterial activity against Mycobacterium tuberculosis H37Rv infected in mouse J774.A1 cells assessed as log reduction of bacterial growth at 40X MIC measured after 4 days by visual colony counting analysis; type: functional; conditions: time 4 day
[5] = test system: Mycobacterium tuberculosis; experiment: Antimycobacterial activity against Mycobacterium tuberculosis H37Rv infected in mouse J774.A1 cells assessed as log reduction of bacterial growth at 10X MIC measured after 4 days by visual colony counting analysis; type: functional; conditions: time 4 day
[6] = test system: Mycobacterium tuberculosis; experiment: Antimycobacterial activity against Mycobacterium tuberculosis H37Rv infected in mouse J774.A1 cells assessed as log reduction of bacterial growth at 20X MIC measured after 4 days by visual colony counting analysis; type: functional; conditions: time 4 day
[7] = test system: Mycobacterium tuberculosis; experiment: Antimycobacterial activity against Mycobacterium tuberculosis H37Rv infected in mouse J774.A1 cells assessed as log reduction of bacterial growth at 1X MIC measured after 4 days by visual colony counting analysis; type: functional; conditions: time 4 day
[8] = test system: Mycobacterium tuberculosis; experiment: Antimycobacterial activity against Mycobacterium tuberculosis H37Rv infected in mouse J774.A1 cells assessed as log reduction of bacterial growth at 1X to 40X MIC measured after 1 day by visual colony counting analysis; type: functional
Cell membrane [9] = experiment: Disruption on membrane integrity in Mycobacterium tuberculosis assessed as red fluorescence at 2X to 4X MIC measured after 24 hrs by SYTO 9/PI staining based inverted flourescence microscopy method
Cell membrane [10] = experiment: Disruption of membrane integrity Mycobacterium tuberculosis H37Rv assessed as disturbance in energy homeostasis by measuring reduction in ATP content at 0.125 to 2.5 ug/ml measured after 24 hrs by luciferase based bioluminescence assay; conditions: dose 0.125-2.5 µg/ml
J774.A1 [11] = experiment: Induction of cytoplasmic ROS generation in mouse J774.A1 cells infected with Mycobacterium tuberculosis H37Rv at 2.5 ug/ml measured after 24 hrs by DCFH-DA staining based flow cytometry assay; type: functional, cell-based; conditions: dose 2.5 µg/ml
J774.A1 [12] = experiment: Induction of mitochondrial ROS generation in mouse J774.A1 cells infected with Mycobacterium tuberculosis H37Rv at 2.5 ug/ml measured after 24 hrs by Mito-SOX staining based flow cytometry assay; type: functional, cell-based; conditions: dose 2.5 µg/ml
J774.A1 [13] = experiment: Activation of autophagy in mouse J774.A1 cells infected with Mycobacterium tuberculosis H37Rv assessed as increase of LC3-II expression by measuring ratio of LC3-II to LC3-I at 1 ug/ml measured after 24 hrs by Western blot assay (reference value: 1.18); type: functional; conditions: dose 1 µg/ml
J774.A1 [14] = experiment: Activation of autophagy in mouse J774.A1 cells infected with Mycobacterium tuberculosis H37Rv assessed as increase of LC3-II expression by measuring ratio of LC3-II to LC3-I at 2.5 ug/ml measured after 24 hrs by Western blot assay (reference value: 1.18); type: functional; conditions: dose 2.5 µg/ml
J774.A1 [15] = experiment: Activation of autophagy in mouse J774.A1 cells infected with Mycobacterium tuberculosis H37Rv assessed as increase of LC3-II expression by measuring ratio of LC3-II to LC3-I at 5 ug/ml measured after 24 hrs by Western blot assay (reference value: 1.18); type: functional; conditions: dose 5 µg/ml
[16] = Half life in Wistar rat at 2.5 mg/kg, im measured for 48 hrs by HPLC method; type: ADME, organism-based; conditions: in vivo
[17] = Tmax in Wistar rat at 2.5 mg/kg, im measured for 48 hrs by HPLC method; type: ADME, organism-based; conditions: in vivo
[18] = Cmax in Wistar rat at 2.5 mg/kg, im measured for 48 hrs by HPLC method; type: ADME, organism-based; parameters: route intramuscular, dose 2.5 mg/kg, time 48 hrs; conditions: in vivo
[19] = AUC (0 to t) in Wistar rat at 2.5 mg/kg, im measured for 48 hrs by HPLC method; type: ADME, organism-based; parameters: dose 2.5 mg/kg, time 48 hrs; conditions: in vivo
[20] = AUC (0 to infinity) in Wistar rat at 2.5 mg/kg, im by HPLC method; type: ADME, organism-based; parameters: time infinity, route intramuscular, dose 2.5 mg/kg; conditions: in vivo
[21] = MRT (0 to t) in Wistar rat at 2.5 mg/kg, im measured for 48 hrs by HPLC method; type: ADME, organism-based; conditions: in vivo
[22] = MRT (0 to infinity) in Wistar rat at 2.5 mg/kg, im by HPLC method; type: ADME, organism-based; conditions: in vivo
J774.A1 [23] = experiment: Induction of cytoplasmic ROS generation in mouse J774.A1 cells at 2.5 ug/ml measured after 24 hrs by DCFH-DA staining based flow cytometry assay; type: functional, cell-based; conditions: dose 2.5 µg/ml
J774.A1 [24] = experiment: Induction of mitochondrial ROS generation in mouse J774.A1 cells at 2.5 ug/ml measured after 24 hrs by DCFH-DA staining based flow cytometry assay; type: functional, cell-based; conditions: dose 2.5 µg/ml
J774.A1 [25] = experiment: Activation of autophagy in mouse J774.A1 cells assessed as LC3-II expression by measuring ratio of LC3-II to LC3-I measured after 24 hrs by Western blot assay (reference value: 1.04); type: functional
J774.A1 [26] = experiment: Activation of autophagy in mouse J774.A1 cells assessed as LC3 accumulation measured after 24 hrs by immunofluorescence staining analysis; type: functional, cell-based
J774.A1 [27] = experiment: Activation of autophagy in mouse J774.A1 cells infected with Mycobacterium tuberculosis H37Rv assessed as increase in LC3 accumulation at 2.5 to 5 ug/ml measured after 24 hrs by immunofluorescence staining analysis; type: functional, cell-based; conditions: dose 2.5-5 µg/ml
[28] = Toxicity in Wistar rat assessed as abnormal behaviour at 2.5 mg/kg, im measured for 48 hrs; type: organism-based; conditions: in vivo

SMILES: CC(=O)c1c(C)[n+]([O-])c2cc(N3CCNC(C)C3)c(F)cc2[n+]1[O-] (centres undefined)
- MIC [1]: 16 µg/mL (≈ 47.9 µM)

SMILES: Cc1c(C(=O)OCc2ccccc2)[n+]([O-])c2cc(F)c(F)cc2[n+]1[O-]
- MIC [1]: 0.5 µg/mL (≈ 1.44 µM)
- IC50 (Vero): 55.3 µM
- selectivity ratio at 72 hrs [2]: 38.3

SMILES: CCOC(=O)c1c(C)[n+]([O-])c2cc(N3CCN(C)CC3)c(F)cc2[n+]1[O-]
- MIC [1]: 8 µg/mL (≈ 22 µM)

SMILES: CCOC(=O)c1c(C)[n+]([O-])c2cc(N3CCNCC3)c(F)cc2[n+]1[O-]
- MIC [1]: 4 µg/mL (≈ 11.4 µM)

SMILES: CCOC(=O)c1c(C)[n+]([O-])c2cc(N3CCCC3)c(F)cc2[n+]1[O-]
- MIC [1]: 64 µg/mL (≈ 191 µM)

SMILES: CC(=O)c1c(C(F)(F)F)[n+]([O-])c2cc(-n3ccnc3)c(F)cc2[n+]1[O-]
- MIC [1]: 0.25 µg/mL (≈ 0.702 µM)
- IC50 (Vero): 46.5 µM
- selectivity ratio at 72 hrs [2]: 66.2

SMILES: CCCC(=O)c1c(C)[n+]([O-])c2ccccc2[n+]1[O-]
- MIC [1]: 64 µg/mL (≈ 260 µM)

SMILES: Cc1c(C(=O)CC(C)C)[n+]([O-])c2ccccc2[n+]1[O-]
- MIC [1]: 64 µg/mL (≈ 246 µM)

SMILES: CCOC(=O)c1c(C(F)(F)F)[n+]([O-])c2cc(-n3ccnc3)c(F)cc2[n+]1[O-]
- MIC [1]: 0.25 µg/mL (≈ 0.647 µM)
- IC50 (Vero): 19.4 µM
- selectivity ratio at 72 hrs [2]: 30

SMILES: CCOC(=O)c1c(C)[n+]([O-])c2cc(N3CCCCC3)c(F)cc2[n+]1[O-]
- MIC [1]: 32 µg/mL (≈ 91.6 µM)

SMILES: Cc1c(C(=O)CC(C)C)[n+]([O-])c2cc(F)c(N3CCNCC3)cc2[n+]1[O-]
- MIC [1]: 32 µg/mL (≈ 88.3 µM)

SMILES: Cc1c(C(=O)OCc2ccccc2)[n+]([O-])c2cc(F)c(-n3cncn3)cc2[n+]1[O-]
- MIC [1]: 0.125 µg/mL (≈ 0.316 µM)
- IC50 (Vero): 123 µM
- selectivity ratio at 72 hrs [2]: 328
- IC50 (J774.A1 [3]): 77.7 µM
- log(activity) [4]: 2.73
- log(activity) [5]: 1.56
- log(activity) [6]: 2.12
- log(activity) [7]: 0.74
- log(activity) [8]: 0.1
- Activity (Cell membrane [9]): Active
- Activity (Cell membrane [10]): Active
- Activity (J774.A1 [11]): Active
- Activity (J774.A1 [12]): Active
- Ratio (J774.A1 [13]): 1.74
- Ratio (J774.A1 [14]): 1.92
- Ratio (J774.A1 [15]): 2.59
- half-life [16]: 5.94 h
- Tmax [17]: 2 h
- Cmax [18]: 1560 ng/mL
- AUC(0-t) at 48 h [19]: 10100 ng·h/mL
- AUC(0-inf) [20]: 10600 ng·h/mL
- MRT last at 48 h [21]: 6.04 h
- MRT inf [22]: 7.38 h
- Activity (J774.A1 [23]): inactive
- Activity (J774.A1 [24]): inactive
- Ratio (J774.A1 [25]): 0.78
- Activity (J774.A1 [26]): inactive
- Activity (J774.A1 [27]): Active
- Activity [28]: Non-Toxic

SMILES: CCOC(=O)c1c(C)[n+]([O-])c2cc(N3CCNC(C)C3)c(F)cc2[n+]1[O-] (centres undefined)
- MIC [1]: 8 µg/mL (≈ 22 µM)

SMILES: CC(=O)c1c(C)[n+]([O-])c2cc(N3CCNCC3)ccc2[n+]1[O-]
- MIC [1]: 64 µg/mL (≈ 212 µM)

SMILES: CO[C@H]1/C=C/O[C@@]2(C)Oc3c(C)c(O)c4c(O)c(c(/C=N/N5CCN(C)CC5)c(O)c4c3C2=O)NC(=O)/C(C)=C\C=C\[C@H](C)[C@H](O)[C@@H](C)[C@@H](O)[C@@H](C)[C@H](OC(C)=O)[C@@H]1C [RIFAMPIN]
- MIC [1]: 0.0625 µg/mL (≈ 0.0759 µM)
